Laboratory results from patent US5723631A, “Coumarin derivatives as retroviral inhibitors” (SmithKline Beecham Corporation, priority 1995, dated 1998).
Like-named read-outs stand apart in the source and are kept apart here.

Columns and labels:
[1] = target: T1, HIV reverse transcriptase (Human immunodeficiency virus type 1 group M subtype B, UniProt P03366); assay: HIV reverse transcriptase inhibition (TCA precipitation assay / scintillation proximity assay); type: biochemical
T1 construct: Recombinant HIV reverse transcriptase; made in house
Description: 5. Reverse Transcriptase Activity
RT inhibition was determined by a TCA precipitation assay as follows:
TCA-precipitation assay for HIV reverse transcriptase.
A heteropolymeric primer template was prepared by hybridizing a 691 nucleotide RNA molecule derived from the gag region of HIV [(+)-GAG^691, prepared as described in Mizrahi, V., Biochemistry, 28:9088-9094 (1989)], to a synthetic oligodeoxynucleotide (sequence: 5'-[…]-3'). The primer template (10 nM) was incubated in reaction buffer (50 mM Tris-HCl, pH 7.8, 80 mM KCl, 6 mM MgCl2, 10 mM DTT, 0.01 mg/ml BSA) with inhibitor, 10 μM dGTP, 10 μM dATP, and 28 μCi/ml of [3H]TYP (Amersham). Recombinant HIV reverse transcriptase (prepared as described in Mizrahi, et al., Arch. Biochem. Biophys., 273: 347-358, (1989)) was added to a concentration of 2-8 nM, and the reaction was incubated for 15 min at 37° C. (total reaction volume, 50 μL). The reaction was terminated with 50 μL of 20% TCA in 100 mM sodium pyrophosphate (ice cold) and chilled on ice for 15-30 min. The reaction mixture was filtered through glass fiber filters using a cell harvester, and the radioactivity that adhered to the filter was quantified using an LKB betaplate counter.
Scintillation proximity assay for HIV reverse tanscriptase.
HIV reverse transcriptase SPA enzyme assay system kits were obtained from Amersham (item number NK8972) and used as described in the package insert. Briefly, 10 μL of primer-template as supplied in the kit was added to 70 μL of dNTP/[3H]TTP solution. Ten μL of the inhibitor to be tested was added, followed by recombinant HIV RT (prepared as above) to a concentration of 2 nM. The reaction mixture was incubated for 10 min at room temperature and then terminated with 40 μL of 0.5M EDTA. Ten μL of streptavidin-SPA beads were added to each tube and the incorporated radioactivity was measured in an LKB betaplate counter.

[2] = tested on: human immunodeficiency virus-1 reverse transcriptase (HIV-1 RT); settings: literature, Kashman et al. 1992; cited from earlier work
[3] = Cellular cytotoxicity in Molt4 cells; type: cell-based; settings: human, Measured via XTT
Description: Cytotoxicity was tested with the CD4+cell line, Molt4. The compounds of the present invention were dissolved in DMSO in order to maximize solubility and provide a common solvent system. […] Cytotoxicity was measured as the inhibition of ^3 H-thymidine incorporation into the host cell's genome after exposure to the compounds of the present invention.

[4] = target: T2, HIV RT in which amino acid #181 was changed from tyrosine to isoleucine (Human immunodeficiency virus type 1 BH10, UniProt P03366, Y780I); assay: Inhibition of TIBO-resistant mutant HIV RT, amino acid #181 tyrosine to isoleucine; type: biochemical; settings: Tyr181 to isoleucine mutant
T2 construct: wild type recombinant per Mizrahi 1989

HIV-1 (IIIB Stock) = assay: HIV-1 infectivity inhibition assay (Molt4 cells); type: cell-based; settings: for IC50: read-out: IC50 (50% Inhibitory concentration for cytopathicity by HIV); for Selective Index (Cytotoxycity/IC50 ratio): cytotoxicity/IC50 ratio, 10080 min
Description: 6. HIV-1 Infectivity Inhibition Assay
In addition, the compounds of the present invention were assayed via a virus neutralization, or HIV infectivity assay as follows:
Bulk Infection of Molt4 Cells.
Bulk infection is used to overcome variations inherent in individual well infections. Sufficient cells and diluted virus stock for an experiment are mixed together in a T-75 flask (Corning) so that the following ratio per well of virus and cells is maintained: 100 μl containing 45 TCID50 of virus (IIIB Stock) mixed with 100 μl of Molt4 cells (3×10^4 cells/well or 3×10^5 /ml). Virus is allowed to adsorb for 90 min. at 37° C. in CO2 incubator. […] of cell/virus mixture is then aliquoted into individual wells of a 24-well plate.
Appropriate 1/200 volumes of inhibitor dilutions at 200X final concentrations in 100% DMSO are added [i.e., to the 497.5 μl of virus infected cells, 2.5 μl of inhibitor dilution of 100% DMSO or 100% DMSO alone (for virus controls) is carefully added to appropriate wells]. Dilution series are generally 5-fold dilutions starting from 50 μg/ml.
Cultures are fed with RPMI 1640+20% FBS containing 1× concentration of inhibitor series (i.e., starting concentrations present at beginning of experiment) at the following times and volumes:
(Final volume in each well=1.5 ml)
Culture supernatants are harvested at 7 days post infection. Generally 90 μl of culture medium is transferred into a 96-well culture plate containing 10 μl 5% Triton X-100 in PBS. The plate is sealed, wiped with gauze saturated with 70% ethanol+detergent and stored at -80° C. until Micro RTs or p24 ELISAs are done. The results of HIV infectivity,inhibition is presented below:
^2 50% Inhibitory concentration for cytopathicity by HIV

[5] = target: T3, HIV RT in which amino acid #181 was changed from tyrosine to cysteine (Human immunodeficiency virus type 1 BH10, UniProt P03366, Y780C); assay: Inhibition of TIBO-resistant mutant HIV RT, amino acid #181 tyrosine to cysteine; type: biochemical; settings: Tyr181 to cysteine mutant
T3 construct: wild type recombinant per Mizrahi 1989

[6] = Compounds 22 and 23, Example 7, read-out: Reverse Transcriptase Activity: IC50
[7] = recombinant HIV RT, RT inhibition results table of Example 5, read-out: IC50
[8] = Human immunodeficiency virus 1, IIIB, MOLT-4, 168 h

Question: With CCCc1cc(=O)oc2c3c(c4c(c12)OC(C)(C)C=C4)O[C@H](C)[C@@H](C)[C@@H]3O (relative stereo) [(±)-20, (±)-Calanolide A] as the compound, how does the “HIV-1 RT-inhibitory potency compared with natural calanolide A (in words)” value ([1]; synthetic racemate vs data reported for natural calanolide A) read?
Answer: The value was “in full agreement with the data reported for natural calanolide A”.

Question: For CCCc1cc(=O)oc2c3c(c4c(c12)OC(C)(C)C=C4)O[C@@H](C)C[C@@H]3O (relative stereo) [Compound 22], which IC50 [1, 6] is on record?
Answer: Its IC50 is 1.78 µM.

Question: For CCCc1cc(=O)oc2c3c(c4c(c12)OC(C)(C)C=C4)O[C@@H](C)C[C@H]3O (relative stereo) [Compound 23], which IC50 [1, 6] is on record?
Answer: The IC50 was 0.6 µM.

Question: Which “inhibition of HIV-1 RT (in words)” value [2] does the source give for CCCc1cc(=O)oc2c3c(c4c(c12)OC(C)(C)C=C4)O[C@H](C)[C@@H](C)[C@@H]3O [Calanolide A] here?
Answer: Its value is “potent inhibitor”.

Question: For C/C=C(\C)C(=O)c1c(OC)c2c(c3c(-c4ccccc4)cc(=O)oc13)OC(C)(C)C=C2 [Calophyllolide], which IC50 [1, 7] is on record?
Answer: The IC50 was over 50 µM.

Question: And the CC50 [3]?
Answer: The CC50 was 4.5 µM.

Question: Which IC50 [1, 7] does the source give for C[C@@H]1[C@H](O)c2c(c3c(c4c(-c5ccccc5)cc(=O)oc24)OC(C)(C)C=C3)O[C@@H]1C [Inophyllum A] here?
Answer: Its IC50 is 9 µM.

Question: What about the CC50 [3] of the same compound?
Answer: The CC50 was 33 µM.

Question: What does the source list for C[C@H]1[C@H](O)c2c(c3c(c4c(-c5ccccc5)cc(=O)oc24)OC(C)(C)C=C3)O[C@@H]1C [Inophyllum B]?
Answer: inhibition of mutant HIV RT relative to wild-type (in words) [4]: potency comparable to that observed with wild-type HIV RT; IC50 (HIV-1 (IIIB Stock); [8]): 1400 nM; Selective Index (Cytotoxycity/IC50 ratio) (HIV-1 (IIIB Stock)): 39; activity in the RT-ase assay (in words) [1]: sub-micromolar activity; IC50 [1, 7]: 0.3 µM; CC50 [3]: 55 µM; inhibition of mutant HIV RT relative to wild-type (in words) [5]: potency comparable to that observed with wild-type HIV RT

Question: With C[C@H]1Oc2c3c(c4c(-c5ccccc5)cc(=O)oc4c2C(=O)[C@@H]1C)OC(C)(C)C=C3 [Inophyllum C] as the compound, how does the IC50 [1, 7] read?
Answer: The IC50 was over 50 µM.

Question: What about the CC50 [3] of the same compound?
Answer: Its CC50 is 18 µM.

Question: With C[C@H]1[C@@H](C)Oc2c3c(c4c(-c5ccccc5)cc(=O)oc4c2[C@@H]1O)OC(C)(C)C=C3 [Inophyllum D] as the compound, how does the IC50 [1, 7] read?
Answer: The IC50 was 30 µM.

Question: What about the CC50 [3] of the same compound?
Answer: The CC50 was 15 µM.

Question: What does the source list for C[C@@H]1C(=O)c2c(c3c(c4c(-c5ccccc5)cc(=O)oc24)OC(C)(C)C=C3)O[C@@H]1C [Inophyllum E]?
Answer: IC50 [1, 7]: > 50 µM; CC50 [3]: 6.2 µM

Question: For C[C@@H]1[C@H](O)c2c(c3c(c4c(-c5ccccc5)cc(=O)oc24)O[C@@H]2[C@H]3C2(C)C)O[C@@H]1C [Inophyllum G1], which IC50 [1, 7] is on record?
Answer: Its IC50 is over 50 µM.

Question: Which IC50 [1, 7] does the source give for C[C@@H]1[C@H](O)c2c(c3c(c4c(-c5ccccc5)cc(=O)oc24)O[C@H]2[C@@H]3C2(C)C)O[C@@H]1C [Inophyllum G2] here?
Answer: The IC50 was over 50 µM.

Question: With C[C@@H]1[C@@H](C)Oc2c3c(c4c(-c5ccccc5)cc(=O)oc4c2[C@@H]1O)OC(C)(C)C=C3 [Inophyllum P] as the compound, how does the “inhibition of mutant HIV RT relative to wild-type (in words)” value [4] read?
Answer: Its value is “potency comparable to that observed with wild-type HIV RT”.

Question: What about the IC50 (HIV-1 (IIIB Stock); [8]) of the same compound?
Answer: The IC50 was 1600 nM.

Question: What about the “Selective Index (Cytotoxycity/IC50 ratio)” value (HIV-1 (IIIB Stock)) of the same compound?
Answer: The value was 16.

Question: And the “activity in the RT-ase assay (in words)” value [1]?
Answer: Its value is “sub-micromolar activity”.

Question: And the IC50 [1, 7]?
Answer: The IC50 was 0.6 µM.

Question: What about the CC50 [3] of the same compound?
Answer: Its CC50 is 25 µM.

Question: And the “inhibition of mutant HIV RT relative to wild-type (in words)” value [5]?
Answer: The value was “potency comparable to that observed with wild-type HIV RT”.

Question: With “tetrahydro-imidazo[4,5,1-jk][1,4]-benzodiazepin-2-(1H)-one and -thione [TIBO, reference compound]” as the compound, how does the IC50 (HIV-1 (IIIB Stock); Molt4 cells, harvest 7 days post infection) read?
Answer: Its IC50 is 190 nM.

Question: What about the “Selective Index (Cytotoxycity/IC50 ratio)” value (HIV-1 (IIIB Stock)) of the same compound?
Answer: The value was 100.
